From patent US9676720B2, “Substituted biaryl compound” (UBE INDUSTRIES, LTD., priority 2013, dated 2017)

Legend:
[1] = system: Pulmonary fibroblasts derived from a human fetus (IMR90); assay: Test for inhibition of pulmonary fibroblast proliferation (BrdU incorporation); assay type: cell-based; settings: IMR90; FGF 10 ng/mL; BrdU incorporation; read-out: IC50 value (nM) of inhibition effect of pulmonary fibroblast proliferation
Procedure: Measurement of inhibition effect of pulmonary fibroblast proliferation was performed by modifying the method of Huang et al. (American Journal of Respiratory Cell and Molecular Biology, 39, 482 (2008)). Pulmonary fibroblasts derived from a human fetus (IMR90, purchased from American Type Culture Collection) were cultured in DMEM medium containing 10% FBS and seeded at 1×10^4 cells/well of a 96-well plate. After culturing for approximately 8 hours in a carbon dioxide incubator, the medium was replaced with FBS-free DMEM medium and the culturing was performed for one night. On the following day, the medium was replaced with a new FBS-free DMEM medium, and then a test compound dissolved in dimethyl sulfoxide (final concentration: 0.1%) and FGF (final concentration: 10 ng/mL, manufactured by Wako Pure Chemical Industries, Ltd.) were added thereto and allowed to stand undisturbed in a carbon dioxide incubator. After 22 hours, a BrdU labeling solution (manufactured by Roche) was added and culturing was performed for another 2 hours. After the completion of the culturing, amount of BrdU incorporation was measured using Cell Proliferation ELISA BrdU (colorimetric) (manufactured by Roche). The concentration of the test compound required to inhibit BrdU incorporation to 50% (IC50 value) was calculated by non-linear regression of the test compound concentration and the amount of BrdU incorporation using EXSAS (Ver. 8.0.0, manufactured by Arm Systex).

human EP2 receptor = human EP2 receptor (Homo sapiens (Human), UniProt P43116); assay: Measurement of EP2 receptor binding action; settings: membrane fraction of HEK293 cells expressing human EP2 receptor; [3H]prostaglandin E2 10 nM
Chain of human EP2 receptor (P43116 whole entry): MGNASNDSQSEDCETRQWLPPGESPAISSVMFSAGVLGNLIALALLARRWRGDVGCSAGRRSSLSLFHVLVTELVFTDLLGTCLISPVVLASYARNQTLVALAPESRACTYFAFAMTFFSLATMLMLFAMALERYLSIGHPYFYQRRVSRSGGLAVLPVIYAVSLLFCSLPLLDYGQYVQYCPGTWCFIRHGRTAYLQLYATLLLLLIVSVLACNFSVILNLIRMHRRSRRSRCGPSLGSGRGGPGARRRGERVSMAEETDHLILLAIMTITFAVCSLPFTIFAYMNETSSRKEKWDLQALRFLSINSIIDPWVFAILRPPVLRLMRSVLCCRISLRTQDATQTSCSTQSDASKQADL
Procedure: The membrane fraction was recovered on glass fiber filter paper (GF/B, manufactured by Whatman) using a cell harvester (M30R, manufactured by Brandel), and after washing with a buffer solution (10 mM MES-KOH (pH 6.0), 10 mM MgCl2), radioactivity was measured with a liquid scintillation analyzer (2000CA, manufactured by Packard). […] Ki=IC50/(1+([^3H]prostaglandin E2 concentration/Kd))
Note that the dissociation constant (Kd value) was calculated by Scatchard analysis.

CC#Cc1cccc(-c2ccc(CN(Cc3cccc(NCC(=O)O)n3)S(=O)(=O)c3ccsc3)cc2)c1 [Example 18] showed an IC50 [1] of 0.0042 nM and a Ki (human EP2 receptor) of 0.99 nM.
